Converted amounts (≈) assume the structure as drawn.

This experiment concerns Mycolicibacterium smegmatis. The experiment is described as follows: Antimycobacterial activity against PknGMsm-deficient Mycobacterium smegmatis harboring PknG Mtb gene by Etest method. The class given is functional.
Molecule `CC[C@H]1OC(=O)[C@H](C)[C@@H](O[C@H]2C[C@@](C)(OC)[C@@H](O)[C@H](C)O2)[C@H](C)[C@@H](O[C@@H]2O[C@H](C)C[C@H](N(C)C)[C@H]2O)[C@](C)(O)C[C@@H](C)C(=O)[C@H](C)[C@@H](O)[C@]1(C)O` [ERYTHROMYCIN] registered an MIC of 32 µg/mL (≈ 43.6 µM). With `CC[C@@H](CO)NCCN[C@@H](CC)CO` [ETHAMBUTOL], the minimum inhibitory concentration (MIC) stood at 0.25 µg/mL (≈ 1.22 µM). `C[C@@H](O)[C@H]1C(=O)N2C(C(=O)O)=C(SCCNC=N)C[C@H]12` [IMIPENEM ANHYDROUS] had an MIC of 6 µg/mL (≈ 20 µM). Turning to `CO[C@H]1/C=C/O[C@@]2(C)Oc3c(C)c(O)c4c(O)c(c(/C=N/N5CCN(C)CC5)c(O)c4c3C2=O)NC(=O)/C(C)=C\C=C\[C@H](C)[C@H](O)[C@@H](C)[C@@H](O)[C@@H](C)[C@H](OC(C)=O)[C@@H]1C` [RIFAMPIN], the MIC was > 32 µg/mL. Turning to `CN[C@H](CC(C)C)C(=O)N[C@H]1C(=O)N[C@@H](CC(N)=O)C(=O)N[C@H]2C(=O)N[C@H]3C(=O)N[C@H](C(=O)N[C@H](C(=O)O)c4cc(O)cc(O)c4-c4cc3ccc4O)[C@H](O)c3ccc(c(Cl)c3)Oc3cc2cc(c3O[C@@H]2O[C@H](CO)[C@@H](O)[C@H](O)[C@H]2O[C@H]2C[C@](C)(N)[C@H](O)[C@H](C)O2)Oc2ccc(cc2Cl)[C@H]1O` [VANCOMYCIN], the lowest concentration to inhibit growth (MIC) was 48 µg/mL (≈ 33.1 µM).

Usually MIC stands for the least concentration at which growth counts as inhibited. The low end stands for inhibition by little substance, the high end for a need for much substance.
